Experimental data: patent US20040081688A1, “Amphiphilic lipid nanoparticles for peptide and/or protein incorporation” (priority 2000, published 2004)

Tests used:
[1] = Partition coefficient octanol/water; type: physicochemical; conditions: 24 hours at room temperature, ratio of drug concentration in organic and water phase by RP-HPLC
Protocol: Partition coefficient: it was determined using octanol as organic phase and water as hydrophilic phase. The two phases were first saturated with each other for 24 hours at room temperature. Antide was then dissolved in the water phase at a concentration well below saturation. An equal volume of organic phase was subsequently added to the water phase and the mixture was kept under stirring for 24 hours at room temperature. Antide concentration in the two phases was determined by RP-HPLC and the partition coefficient was obtained from the ratio between the drug concentration in organic and water phase.
The resulting octanol/water coefficient was 8.56·10^−2

[2] = Antide semi-quantitative solubility evaluation (maximum loading) in lipids; type: physicochemical; conditions: Antide maximum loading in the lipid named in the row

Row | octanol/water coefficient [1] | Antide loading (%) [2] | Compound
1 | 8.56·10^−2 |  | N-Ac-D-2-Nal, D-pClPhe, D-3-Pal, Ser, NicLys, D-NicLys, Leu, Ilys, Pro, D-Ala, NH2 [Antide]
2 |  | 3.7 × 10^−2 - not soluble % | CCCCCCCCCCCCCCCCO [Cetil alcohol]
